In ChEMBL document CHEMBL3885881, “DrugMatrix”:

Organism: Rattus norvegicus
Experiment: DrugMatrix - Regimen: Daily Repeat
Format: toxicity, organism-based, Sprague-Dawley
Parameters: regimen Daily Repeat, gender Male, age 6-8 weeks
Settings: in vivo, po, route oral GAVAGE, vehicle .5 % CMC; for ABSOLUTE BASOPHIL / ABSOLUTE EOSINOPHIL / ABSOLUTE LYMPHOCYTE / ABSOLUTE MONOCYTE / ABSOLUTE SEGMENTED NEUTROPHIL / BASOPHIL / EOSINOPHIL / ERYTHROCYTE COUNT / HEMATOCRIT / HEMOGLOBIN / LEUKOCYTE COUNT / LYMPHOCYTE / MEAN CORPUSCULAR HEMOGLOBIN / MEAN CORPUSCULAR HEMOGLOBIN CONCENTRATION / MEAN CORPUSCULAR VOLUME / MONOCYTE / NEUTROPHIL / NUCLEATED RED BLOOD CELLS / PLATELET COUNT: tissue Blood; for ALANINE AMINOTRANSFERASE / ALBUMIN / ALKALINE PHOSPHATASE / ASPARTATE AMINOTRANSFERASE / BLOOD UREA NITROGEN / CARBON DIOXIDE / CHLORIDE / CHOLESTEROL / CREATINE PHOSPHOKINASE / CREATININE / GLUCOSE / LACTATE DEHYDROGENASE / LIPASE / PHOSPHORUS / POTASSIUM / SODIUM / TOTAL BILIRUBIN / TOTAL PROTEIN / URIC ACID: tissue Plasma
[1] = 100 mg/kg, 120 h, dose level Low, time 5 day
[2] = 1500 mg/kg, 72 h, dose level High, time 3 day
[3] = 1500 mg/kg, 120 h, dose level High, time 5 day

## CO[C@H]1/C=C/O[C@@]2(C)Oc3c(C)c(O)c4c(c3C2=O)C2=NC3(CCN(CC(C)C)CC3)NC2=C(NC(=O)/C(C)=C\C=C\[C@H](C)[C@H](O)[C@@H](C)[C@@H](O)[C@@H](C)[C@H](OC(C)=O)[C@@H]1C)C4=O [RIFABUTIN]
[1]
  ABSOLUTE BASOPHIL: 0 CELLS/uL
  ABSOLUTE EOSINOPHIL: 0 CELLS/uL
  ABSOLUTE LYMPHOCYTE: 10855 CELLS/uL
  ABSOLUTE MONOCYTE: 0 CELLS/uL
  ABSOLUTE SEGMENTED NEUTROPHIL: 1111.67 CELLS/uL
  BASOPHIL: 0%
  EOSINOPHIL: 0%
  ERYTHROCYTE COUNT: 5.53 x10E6/uL
  HEMATOCRIT: 35%
  HEMOGLOBIN: 13.9 G/DL
  LEUKOCYTE COUNT: 11.97 x10E3/uL
  LYMPHOCYTE: 90.67%
  MEAN CORPUSCULAR HEMOGLOBIN: 25.2 pg
  MEAN CORPUSCULAR HEMOGLOBIN CONCENTRATION: 39.77 G/DL
  MEAN CORPUSCULAR VOLUME: 63.37 fL
  MONOCYTE: 0%
  NEUTROPHIL: 9.33%
  NUCLEATED RED BLOOD CELLS: 0 /100WBC
  PLATELET COUNT: 1189 x10E3/uL
  ALANINE AMINOTRANSFERASE: 54.33 u/L
  ALBUMIN: 4.2 G/DL
  ALKALINE PHOSPHATASE: 319 u/L
  ASPARTATE AMINOTRANSFERASE: 78.33 u/L
  BLOOD UREA NITROGEN: 16.67 mg/dL
  CARBON DIOXIDE: 24.67 mmol/L
  CHLORIDE: 102.33 MEQ/L
  CHOLESTEROL: 81.33 mg/dL
  CREATINE PHOSPHOKINASE: 352 u/L
  CREATININE: 0.18 mg/dL
  GLUCOSE: 154.67 mg/dL
  LACTATE DEHYDROGENASE: 179 u/L
  LIPASE: 9.33 u/L
  PHOSPHORUS: 12.83 mg/dL
  POTASSIUM: 6.38 MEQ/L
  SODIUM: 144.7 MEQ/L
  TOTAL BILIRUBIN: 0.23 mg/dL
  TOTAL PROTEIN: 6 G/DL
  URIC ACID: 1.6 mg/dL
[2]
  ABSOLUTE BASOPHIL: 0 CELLS/uL
  ABSOLUTE EOSINOPHIL: 0 CELLS/uL
  ABSOLUTE LYMPHOCYTE: 11965.67 CELLS/uL
  ABSOLUTE MONOCYTE: 420.67 CELLS/uL
  ABSOLUTE SEGMENTED NEUTROPHIL: 2847 CELLS/uL
  BASOPHIL: 0%
  EOSINOPHIL: 0%
  ERYTHROCYTE COUNT: 6.58 x10E6/uL
  HEMATOCRIT: 40.53%
  HEMOGLOBIN: 15.87 G/DL
  LEUKOCYTE COUNT: 15.23 x10E3/uL
  LYMPHOCYTE: 77.33%
  MEAN CORPUSCULAR HEMOGLOBIN: 24.13 pg
  MEAN CORPUSCULAR HEMOGLOBIN CONCENTRATION: 39.17 G/DL
  MEAN CORPUSCULAR VOLUME: 61.6 fL
  MONOCYTE: 2.67%
  NEUTROPHIL: 20%
  NUCLEATED RED BLOOD CELLS: 0 /100WBC
  PLATELET COUNT: 1375.67 x10E3/uL
  ALANINE AMINOTRANSFERASE: 80 u/L
  ALBUMIN: 4.43 G/DL
  ALKALINE PHOSPHATASE: 350.33 u/L
  ASPARTATE AMINOTRANSFERASE: 113.67 u/L
  BLOOD UREA NITROGEN: 14 mg/dL
  CARBON DIOXIDE: 31 mmol/L
  CHLORIDE: 96.33 MEQ/L
  CHOLESTEROL: 148.67 mg/dL
  CREATINE PHOSPHOKINASE: 217 u/L
  CREATININE: 0.21 mg/dL
  GLUCOSE: 160 mg/dL
  LACTATE DEHYDROGENASE: 259 u/L
  LIPASE: 11 u/L
  PHOSPHORUS: 12.37 mg/dL
  POTASSIUM: 5.97 MEQ/L
  SODIUM: 145.43 MEQ/L
  TOTAL BILIRUBIN: 0.47 mg/dL
  TOTAL PROTEIN: 6.3 G/DL
  URIC ACID: 1.7 mg/dL
[3]
  ABSOLUTE BASOPHIL: 0 CELLS/uL
  ABSOLUTE EOSINOPHIL: 0 CELLS/uL
  ABSOLUTE LYMPHOCYTE: 11388 CELLS/uL
  ABSOLUTE MONOCYTE: 273 CELLS/uL
  ABSOLUTE SEGMENTED NEUTROPHIL: 2639 CELLS/uL
  BASOPHIL: 0%
  EOSINOPHIL: 0%
  ERYTHROCYTE COUNT: 6.24 x10E6/uL
  HEMATOCRIT: 38.2%
  HEMOGLOBIN: 15.25 G/DL
  LEUKOCYTE COUNT: 14.3 x10E3/uL
  LYMPHOCYTE: 79%
  MEAN CORPUSCULAR HEMOGLOBIN: 24.5 pg
  MEAN CORPUSCULAR HEMOGLOBIN CONCENTRATION: 39.9 G/DL
  MEAN CORPUSCULAR VOLUME: 61.45 fL
  MONOCYTE: 2%
  NEUTROPHIL: 19%
  NUCLEATED RED BLOOD CELLS: 0 /100WBC
  PLATELET COUNT: 1196.5 x10E3/uL
  ALANINE AMINOTRANSFERASE: 114 u/L
  ALBUMIN: 3.85 G/DL
  ALKALINE PHOSPHATASE: 310.5 u/L
  ASPARTATE AMINOTRANSFERASE: 198.5 u/L
  BLOOD UREA NITROGEN: 19 mg/dL
  CARBON DIOXIDE: 24.5 mmol/L
  CHLORIDE: 97.5 MEQ/L
  CHOLESTEROL: 104 mg/dL
  CREATINE PHOSPHOKINASE: 397.5 u/L
  CREATININE: 0.18 mg/dL
  GLUCOSE: 120.5 mg/dL
  LACTATE DEHYDROGENASE: 645 u/L
  LIPASE: 12.5 u/L
  PHOSPHORUS: 11 mg/dL
  POTASSIUM: 5.77 MEQ/L
  SODIUM: 142.7 MEQ/L
  TOTAL BILIRUBIN: 0.6 mg/dL
  TOTAL PROTEIN: 5.65 G/DL
  URIC ACID: 1.35 mg/dL
